The text below walks through data of article PMC8168783, “An anion and small molecule inhibition study of the β-carbonic anhydrase from Staphylococcus aureus” (Journal of Enzyme Inhibition and Medicinal Chemistry, 2021).

The assay deals with T1, SauBCA.
T1 construct: recombinant, obtained in-house as described earlier
The experiment in a line: stopped-flow CO2 hydration assay. In kind it is biochemical, Staphylococcus aureus. The settings on record: CO2 1.7-17 mM, 10 mM Hepes pH 7.4, 10 mM NaClO4, 15 min preincubation at room temperature.

The Ki is a measure of affinity in units of concentration, obtained from inhibition or displacement.

For `OB(O)c1ccccc1` [phenylboronic acid], the Ki (not as sodium salt) was 0.008 mM.
Consider `O=S(O)O` [bisulphite], for which the Ki (inhibitor as sodium salt) was determined as 0.9 mM.
On the same count and under the same terms, for `CCN(CC)C(=S)S` [N,N-diethyldithiocarbamate] the value was 0.64 mM; for `N#C[SeH]` [selenocyanate], 5.5 mM.
Consider `O=[As](O)(O)c1ccccc1` [phenylarsonic acid], for which the inhibition constant (Ki) (inhibitor as sodium salt) came to 0.007 mM.
On the same count and under the same terms, the value for `[O]=[Sn]([OH])[OH]` [stannate] was 0.32 mM.
